From patent publication US4015974A, “Amido phosphorothiolates” (priority 1972, dated 1977)

What was measured:
Format in all cases: in vivo
[1] = tested on: barnyard grass (Echinochloa crus-galli); assay: Pre-emergence application, herbicidal effect on barnyard grass (Table 1); design: key: 0: not damaged; 5: completely killed; details: 20 days after application, score 0-5
Outline: (§1)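 Pre-emergence soil treatment: seeds sown in pots of about 10 cm and covered with soil, then compounds applied as wettable powder diluted in water. Plants grown in a greenhouse; damage scored 20 days after application from 0 (not damaged) to 5 (completely killed).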

[2] = tested on: large crabgrass (Digitaria sanguinalis); assay: Pre-emergence application, herbicidal effect on large crabgrass (Table 1); design: key: 0: not damaged; 5: completely killed; details: 20 days after application, score 0-5
Outline: as §1

radish = assay: Pre-emergence application, herbicidal effect on radish (Table 1); design: key: 0: not damaged; 5: completely killed; details: 20 days after application, score 0-5
Outline: as §1

[3] = tested on: redroot pigweed (Amaranthus retroflexus); assay: Pre-emergence application, herbicidal effect on redroot pigweed (Table 1); design: key: 0: not damaged; 5: completely killed; details: 20 days after application, score 0-5
Outline: as §1

[4] = tested on: common purslane (Portulaca oleracea); assay: Pre-emergence application, herbicidal effect on common purslane (Table 1); design: key: 0: not damaged; 5: completely killed; details: 20 days after application, score 0-5
Outline: as §1

[5] = tested on: common lambsquarter (Chenopodium album); assay: Pre-emergence application, herbicidal effect on common lambsquarter (Table 1); design: key: 0: not damaged; 5: completely killed; details: 20 days after application, score 0-5
Outline: as §1

rice = assay: Water application, phytotoxicity on rice (Table 2); design: key: 0: no effect; 1: very slightly affected; 2: slightly affected; 3: moderately affected; 4: considerably affected; 5: completely killed; details: 25 days, score 0-5
Outline: (§2)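 Flooded paddy-soil pots with 3-leaf-stage transplanted rice and sown barnyard grass; wettable-powder compounds applied to soil under water. Herbicidal effect and rice phytotoxicity, also on spontaneously germinated broad-leaved weeds, scored 0–5 at 25 days after application.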

[6] = tested on: barnyard grass (Echinochloa crus-galli); assay: Water application, herbicidal effect on barnyard grass (Table 2); design: key: 0: not damaged; 5: completely killed; details: 25 days, score 0-5
Outline: as §2

[7] = tested on: broad-leaved weeds, e.g., monochoria, false pimpernel and toothcup; assay: Water application, herbicidal effect on broad-leaved weeds (Table 2); design: key: 0: not damaged; 5: completely killed; details: 25 days, score 0-5
Outline: as §2

| SMILES | Herbicidal effect, barnyard grass ([1]; 10 g./a.) | Herbicidal effect, barnyard grass ([1]; 20 g./a.) | Herbicidal effect, barnyard grass ([1]; 40 g./a.) | Herbicidal effect, large crabgrass ([2]; 10 g./a.) | Herbicidal effect, large crabgrass ([2]; 20 g./a.) | Herbicidal effect, large crabgrass ([2]; 40 g./a.) | Herbicidal effect, radish (radish; 10 g./a.) | Herbicidal effect, radish (radish; 20 g./a.) | Herbicidal effect, radish (radish; 40 g./a.) | Herbicidal effect, redroot pigweed ([3]; 10 g./a.) | Herbicidal effect, redroot pigweed ([3]; 20 g./a.) | Herbicidal effect, redroot pigweed ([3]; 40 g./a.) | Herbicidal effect, common purslane ([4]; 10 g./a.) | Herbicidal effect, common purslane ([4]; 20 g./a.) | Herbicidal effect, common purslane ([4]; 40 g./a.) | Herbicidal effect, common lambsquarter ([5]; 10 g./a.) | Herbicidal effect, common lambsquarter ([5]; 20 g./a.) | Herbicidal effect, common lambsquarter ([5]; 40 g./a.) | Phytotoxicity on rice (rice; 10 g/a) | Phytotoxicity on rice (rice; 20 g/a) | also measured |
| --- | --- | --- | --- | --- | --- | --- | --- | --- | --- | --- | --- | --- | --- | --- | --- | --- | --- | --- | --- | --- | --- |
| CCCCOP(=O)(SCC(=O)N1CCCCC1CC)SC(C)C (stereo not drawn) [Compound 94] | 5 | 5 | 5 | 5 | 5 | 5 | 0 | 0 | 0 | 3 | 4 | 5 | 3 | 4 | 5 | 4 | 4 | 5 | 0 | 0 | Phytotoxicity on rice (rice; 40 g/a): 0; Herbicidal effects, barnyard grass ([6]; 10 g/a): 5; Herbicidal effects, barnyard grass ([6]; 20 g/a): 5; Herbicidal effects, barnyard grass ([6]; 40 g/a): 5; Herbicidal effects, broad-leaved weeds ([7]; 10 g/a): 5; Herbicidal effects, broad-leaved weeds ([7]; 20 g/a): 5; Herbicidal effects, broad-leaved weeds ([7]; 40 g/a): 5 |
| CCCCOP(=O)(SCCCC)SCC(=O)N1CCCCC1CC (stereo not drawn) [Compound 95] | 4 | 5 | 5 | 4 | 5 | 5 | 0 | 0 | 0 | 2 | 3 | 3 | 2 | 3 | 3 | 2 | 3 | 4 | 0 | 0 | Phytotoxicity on rice (rice; 40 g/a): 0; Herbicidal effects, barnyard grass ([6]; 10 g/a): 5; Herbicidal effects, barnyard grass ([6]; 20 g/a): 5; Herbicidal effects, barnyard grass ([6]; 40 g/a): 5; Herbicidal effects, broad-leaved weeds ([7]; 10 g/a): 5; Herbicidal effects, broad-leaved weeds ([7]; 20 g/a): 5; Herbicidal effects, broad-leaved weeds ([7]; 40 g/a): 5 |
| CCCCOP(=O)(SCC(=O)N1CCCCC1CC)SC(C)CC (stereo not drawn) [Compound 96] | 4 | 5 | 5 | 5 | 5 | 5 | 0 | 0 | 0 | 3 | 4 | 5 | 3 | 4 | 5 | 3 | 4 | 5 | 0 | 0 | Phytotoxicity on rice (rice; 40 g/a): 0; Herbicidal effects, barnyard grass ([6]; 10 g/a): 5; Herbicidal effects, barnyard grass ([6]; 20 g/a): 5; Herbicidal effects, barnyard grass ([6]; 40 g/a): 5; Herbicidal effects, broad-leaved weeds ([7]; 10 g/a): 5; Herbicidal effects, broad-leaved weeds ([7]; 20 g/a): 5; Herbicidal effects, broad-leaved weeds ([7]; 40 g/a): 5 |
| CCCCOP(=O)(SCC(=O)N1CCCCC1CC)SCC(C)C (stereo not drawn) [Compound 97] | 4 | 5 | 5 | 4 | 5 | 5 | 0 | 0 | 0 | 3 | 4 | 5 | 4 | 4 | 5 | 3 | 4 | 5 | 0 | 0 | Phytotoxicity on rice (rice; 40 g/a): 0; Herbicidal effects, barnyard grass ([6]; 10 g/a): 5; Herbicidal effects, barnyard grass ([6]; 20 g/a): 5; Herbicidal effects, barnyard grass ([6]; 40 g/a): 5; Herbicidal effects, broad-leaved weeds ([7]; 10 g/a): 5; Herbicidal effects, broad-leaved weeds ([7]; 20 g/a): 5; Herbicidal effects, broad-leaved weeds ([7]; 40 g/a): 5 |
